Here are results for nine molecules from patent US9840509B2, “Heterocyclic compounds” (CADILA HEALTHCARE LIMITED, priority 2014, dated 2017).

For one data set, the target named is T1, CYP 2C8 (Homo sapiens, UniProt P10632).
T1 construct: from tissue; host or cells: human liver microsomes
T1 sequence (P10632 1-490): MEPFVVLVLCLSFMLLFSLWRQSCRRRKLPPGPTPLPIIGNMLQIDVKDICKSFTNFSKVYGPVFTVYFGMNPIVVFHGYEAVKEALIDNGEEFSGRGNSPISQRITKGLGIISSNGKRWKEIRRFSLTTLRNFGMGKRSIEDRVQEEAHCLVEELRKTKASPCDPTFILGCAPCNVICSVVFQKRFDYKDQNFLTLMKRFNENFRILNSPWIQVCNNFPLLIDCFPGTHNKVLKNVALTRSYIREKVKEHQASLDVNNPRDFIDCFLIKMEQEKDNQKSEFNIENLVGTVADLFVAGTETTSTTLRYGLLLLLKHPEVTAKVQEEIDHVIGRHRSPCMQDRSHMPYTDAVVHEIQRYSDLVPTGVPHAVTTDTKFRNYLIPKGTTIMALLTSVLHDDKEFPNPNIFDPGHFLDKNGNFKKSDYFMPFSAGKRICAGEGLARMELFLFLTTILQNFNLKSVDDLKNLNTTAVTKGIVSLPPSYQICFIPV
Briefly: CYP inhibition in human liver microsomes, 2C8. The class given is in vitro ADME. To be noted: pH 7.4, @ 10 μM concn. As for the experimental part: (§1) CYP Inhibition Studies: CYP inhibition studies were performed with test compounds, at two concentrations ([…] and 10 μM), using human liver microsomes (Yao, M., Zhu, M., Sinz, M. W., Zhang, H., Humphreys, W. F., Rodrigues, A. D and Dai, R., Journal of Pharmaceutical and Biomedical Analysis, 2007, 44, 211-223; Walsky, R. L and Obach, R. S., Drug Metab. Dispos., 2004, 32, 647-660). Human liver microsomes were mixed with 100 mM phosphate buffer (pH 7.4) and probe substrate and warmed to […] in microcentrifuge tubes. Aliquots of this mixture (499 μL) were transferred to each pre-labeled microcentrifuge tubes, followed by addition of the 1 μL of inhibitors (test compound/CYP-specific positive control inhibitor) or control solvent (DMSO). Aliquots of this mixture (90 μL) were transferred to each pre-labeled microcentrifuge tubes in duplicate. Final solvent concentrations were 0.2% (v/v) or less. Incubations were commenced with the addition of 10 μL NADPH stock (assay concentration, 1 mM) to a final incubation volume of 100 μL and incubated in shaking water bath (at 37° C. and 100 rpm), for the period defined in Tables 1. Incubations were terminated by addition of 400 μL of termination solvent (CH3CN) containing internal standard. The terminated samples were vortex-mixed, centrifuged at 10000 rpm for 5 min and supernatant transferred into HPLC vials for LC-MS/MS analysis to monitor metabolites produced by marker CYP reactions. […] Animals
A general note: Microsomes from liver hold many membrane-bound enzymes, among them those of drug oxidation.

The next data set concerns the target T2, CYP 3A4 (Homo sapiens, UniProt P08684).
T2 construct: from tissue; host or cells: human liver microsomes
Put plainly: CYP inhibition in human liver microsomes, 3A4. The class given is in vitro ADME. The following applies: pH 7.4, @ 10 μM concn. Here is the method: as §1

The next data set addresses T3, CYP 2D6 (Homo sapiens, UniProt P10635).
T3 construct: from tissue; host or cells: human liver microsomes
Briefly: CYP inhibition in human liver microsomes, 2D6. Type of data set: in vitro ADME. To be noted: pH 7.4, @ 10 μM concn. As for the experimental part:
as §1

Another data set deals with T4, CYP 2C19 (Homo sapiens, UniProt P33261).
T4 construct: from tissue; host or cells: human liver microsomes
Put plainly: CYP inhibition in human liver microsomes, 2C19. Type of data set: in vitro ADME. To be noted: pH 7.4, @ 10 μM concn. Here is the method:
as §1

In the next data set the target is T5, CYP 1A2 (Homo sapiens, UniProt P05177).
T5 construct: from tissue; host or cells: human liver microsomes
T5 sequence (P05177 1-516): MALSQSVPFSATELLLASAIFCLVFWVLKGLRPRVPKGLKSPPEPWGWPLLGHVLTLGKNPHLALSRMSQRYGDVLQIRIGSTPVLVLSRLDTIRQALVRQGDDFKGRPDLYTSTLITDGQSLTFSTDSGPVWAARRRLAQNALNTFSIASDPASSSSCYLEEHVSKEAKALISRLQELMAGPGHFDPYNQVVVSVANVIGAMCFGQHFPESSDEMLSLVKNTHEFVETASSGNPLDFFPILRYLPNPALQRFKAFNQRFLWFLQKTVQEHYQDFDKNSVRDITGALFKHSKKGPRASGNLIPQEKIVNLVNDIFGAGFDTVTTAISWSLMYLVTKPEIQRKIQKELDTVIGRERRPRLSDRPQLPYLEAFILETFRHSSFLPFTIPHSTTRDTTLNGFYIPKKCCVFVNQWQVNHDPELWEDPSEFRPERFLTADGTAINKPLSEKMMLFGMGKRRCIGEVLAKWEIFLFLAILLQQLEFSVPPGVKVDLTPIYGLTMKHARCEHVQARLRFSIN
Briefly: CYP inhibition in human liver microsomes, 1A2. The class given is in vitro ADME. To be noted: pH 7.4, @ 10 μM concn. As for the experimental part: as §1

For data set [1], the target named is T6, recombinant purified human BTK (Homo sapiens, UniProt Q06187).
T6 construct: purchased SignalChem, USA
Put plainly: In vitro BTK kinase assay on ADP Glo platform. To be noted: 2 hr room temperature, read-out: In-vitro BTK inhibitory activity: IC50. Type of data set: biochemical. Here is the method:
Testing of Compounds of the Invention Biological Studies: In vitro BTK Inhibitory Activity Assay:
In vitro BTK inhibitory activity of test compounds were screened using BTK kinase assay on ADP Glo platform (Li, H., Totoritis, R. D., Lor, L. A., Schwartz, B., Caprioli, P., Jurewicz, A. J and Zhang, G., Assay Drug Dev. Technol., 2009, 7(6), 598-605). Briefly, fixed amount of recombinant purified human BTK (3 ng/reaction from SignalChem, USA) were incubated with increasing concentration of test compounds, in 1× kinase reaction buffer (40 mM Tris-Cl, pH7.5, 20 mM MgCl2, 2 mM MnCl2, 0.1 mg/ml BSA and 50 μM DTT). Enzymatic reaction was initiated by adding a substrate cocktail containing 50 µM of ATP (final concentration) and […] of polyGln4Tyr1 (Signal Chem) in total 25 μl of reaction, in round bottom white 96 well plate. The reaction mixture was incubated at room temperature for 2 hr. After 2 hr of incubation, 10 μl of the reaction mix was mixed with […] of ADP Glo reagent, in another round bottom white 96 well plate and incubated at room temperature for 40 min. This was followed by addition of kinase detection reagent (20 μl per reaction) and incubation at room temperature for 30 min. Finally, plate was read for luminescence at an integration time of 500 millisecond per well. Data were plotted taking Enzyme with no inhibitor set as the 100% kinase activity and for dose response curve, % Kinase activity was plotted against conc on Log scale and IC50 was determined by non linear curve fitting method using GraphPad Prism software 6. The in vitro BTK inhibitory activity (IC50) for representative compounds are listed in […]
A general note: ADP-Glo first removes unused ATP, then detects ADP through luciferase.

In another data set the target is T7, CYP 2C9 (Homo sapiens, UniProt P11712).
T7 construct: from tissue; host or cells: human liver microsomes
Put plainly: CYP inhibition in human liver microsomes, 2C9. Type of data set: in vitro ADME. The following applies: pH 7.4, @ 10 μM concn. Here is the method:
as §1

What is called inhibition is the share of the control response that was lost under treatment. A word on the IC50: it is the concentration at which inhibition is half-maximal.

T6 sequence (Q06187 whole entry): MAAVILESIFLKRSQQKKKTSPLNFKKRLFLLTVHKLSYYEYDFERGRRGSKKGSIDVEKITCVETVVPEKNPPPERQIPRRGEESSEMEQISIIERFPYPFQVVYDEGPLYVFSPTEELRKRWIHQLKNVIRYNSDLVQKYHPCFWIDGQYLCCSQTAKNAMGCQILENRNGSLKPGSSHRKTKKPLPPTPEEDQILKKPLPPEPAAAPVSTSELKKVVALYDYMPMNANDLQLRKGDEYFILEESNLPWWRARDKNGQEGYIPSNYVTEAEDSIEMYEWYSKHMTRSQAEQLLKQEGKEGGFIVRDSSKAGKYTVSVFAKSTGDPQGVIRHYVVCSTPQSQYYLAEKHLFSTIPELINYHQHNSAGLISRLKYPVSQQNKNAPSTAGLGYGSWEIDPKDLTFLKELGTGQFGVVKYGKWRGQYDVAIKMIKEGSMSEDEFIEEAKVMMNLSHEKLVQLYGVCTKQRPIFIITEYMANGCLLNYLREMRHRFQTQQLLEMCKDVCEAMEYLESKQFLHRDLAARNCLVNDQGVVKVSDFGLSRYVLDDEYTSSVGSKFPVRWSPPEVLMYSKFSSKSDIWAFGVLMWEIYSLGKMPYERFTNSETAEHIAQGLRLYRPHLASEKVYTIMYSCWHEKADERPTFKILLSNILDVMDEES
T2 sequence (P08684 whole entry): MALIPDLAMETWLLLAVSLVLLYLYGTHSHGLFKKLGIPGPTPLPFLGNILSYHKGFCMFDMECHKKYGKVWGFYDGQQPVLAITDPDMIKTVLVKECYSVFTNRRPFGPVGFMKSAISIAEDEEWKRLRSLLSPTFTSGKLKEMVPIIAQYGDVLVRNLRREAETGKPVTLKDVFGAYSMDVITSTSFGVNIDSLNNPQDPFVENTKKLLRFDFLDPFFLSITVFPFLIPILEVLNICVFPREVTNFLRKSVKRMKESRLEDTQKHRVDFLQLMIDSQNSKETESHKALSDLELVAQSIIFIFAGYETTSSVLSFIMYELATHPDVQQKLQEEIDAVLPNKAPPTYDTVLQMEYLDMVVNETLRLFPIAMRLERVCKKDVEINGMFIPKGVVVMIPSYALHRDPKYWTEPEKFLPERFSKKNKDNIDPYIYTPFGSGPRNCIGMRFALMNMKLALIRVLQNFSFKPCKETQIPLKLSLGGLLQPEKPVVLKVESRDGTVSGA
T3 sequence (P10635 whole entry): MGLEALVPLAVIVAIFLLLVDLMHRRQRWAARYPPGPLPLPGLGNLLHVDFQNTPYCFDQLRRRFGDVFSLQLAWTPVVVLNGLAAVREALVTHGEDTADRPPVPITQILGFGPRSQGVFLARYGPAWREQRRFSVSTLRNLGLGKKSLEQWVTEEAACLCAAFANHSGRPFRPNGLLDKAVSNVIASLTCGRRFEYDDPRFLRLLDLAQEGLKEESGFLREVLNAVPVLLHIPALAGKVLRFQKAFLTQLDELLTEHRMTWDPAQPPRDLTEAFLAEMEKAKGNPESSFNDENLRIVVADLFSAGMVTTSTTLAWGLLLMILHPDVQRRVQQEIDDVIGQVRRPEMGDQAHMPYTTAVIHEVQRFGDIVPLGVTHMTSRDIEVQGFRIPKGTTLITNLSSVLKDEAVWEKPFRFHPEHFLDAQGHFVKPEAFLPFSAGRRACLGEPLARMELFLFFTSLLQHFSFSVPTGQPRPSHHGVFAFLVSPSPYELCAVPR
T4 sequence (P33261 whole entry): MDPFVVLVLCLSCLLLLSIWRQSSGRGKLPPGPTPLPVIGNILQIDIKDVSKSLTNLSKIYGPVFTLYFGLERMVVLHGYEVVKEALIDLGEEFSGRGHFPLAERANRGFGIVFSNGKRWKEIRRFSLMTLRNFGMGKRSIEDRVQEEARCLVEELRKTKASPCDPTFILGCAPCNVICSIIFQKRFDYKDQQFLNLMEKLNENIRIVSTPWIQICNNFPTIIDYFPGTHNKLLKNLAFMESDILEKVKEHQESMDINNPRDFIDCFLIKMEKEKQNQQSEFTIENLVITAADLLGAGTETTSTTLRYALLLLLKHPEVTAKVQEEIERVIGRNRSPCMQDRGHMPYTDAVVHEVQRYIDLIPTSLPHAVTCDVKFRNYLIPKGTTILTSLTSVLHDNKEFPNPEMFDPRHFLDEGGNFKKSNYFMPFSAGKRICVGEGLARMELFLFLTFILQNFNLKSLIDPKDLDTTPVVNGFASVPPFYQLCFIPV
T7 sequence (P11712 whole entry): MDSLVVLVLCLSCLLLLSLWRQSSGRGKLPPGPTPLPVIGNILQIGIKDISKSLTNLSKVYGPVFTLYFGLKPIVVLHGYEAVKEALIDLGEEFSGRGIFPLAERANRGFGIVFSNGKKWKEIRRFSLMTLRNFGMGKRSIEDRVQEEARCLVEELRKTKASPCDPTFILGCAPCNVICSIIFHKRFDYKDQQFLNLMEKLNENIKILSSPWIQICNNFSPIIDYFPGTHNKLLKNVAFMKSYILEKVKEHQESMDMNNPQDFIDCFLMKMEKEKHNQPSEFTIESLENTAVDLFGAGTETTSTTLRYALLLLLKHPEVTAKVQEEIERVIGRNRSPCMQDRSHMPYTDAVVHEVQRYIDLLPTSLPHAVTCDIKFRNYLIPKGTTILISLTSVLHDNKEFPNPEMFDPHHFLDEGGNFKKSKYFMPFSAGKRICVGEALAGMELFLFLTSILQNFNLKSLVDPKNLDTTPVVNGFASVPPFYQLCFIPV

For the molecule `C=CC(=O)N1CC2CC(n3nc(-c4ccc(Oc5ccccn5)cc4)c4c(N)ncnc43)CC2C1` (stereo not drawn) [Compound 43, 1-(5-(4-amino-3-(4-(pyridin-2-yloxy)phenyl)-1H-pyrazolo[3,4-d]pyrimidin-1-yl)hexahydrocyclopenta[c]pyrrol-2(1H)-yl)prop-2-en-1-one], the inhibition at 10 μM against CYP 2C8, against CYP 3A4, at CYP 2D6, against CYP 2C19, against CYP 1A2 and against CYP 2C9 was less than 50% throughout. The IC50 in data set [1] is 2 nM.

With `C=CC(=O)N1CC2CC(n3nc(-c4ccc5c(c4)OCO5)c4c(N)ncnc43)CC2C1` (stereo not drawn) [Compound 15, 1-(5-(4-amino-3-(benzo[d] [1,3]dioxol-5-yl)-1H-pyrazolo[3,4-d]pyrimidin-1-yl)hexahydrocyclopenta[c]pyrrol-2(1H)-yl)prop-2-en-1-one], the inhibition at 10 μM against CYP 2C8 is less than 50%; against CYP 3A4, greater than 50%; against CYP 2D6, less than 50%; against CYP 2C19, less than 50%; at CYP 1A2 it was less than 50%; against CYP 2C9, less than 50%. Besides, the IC50 in data set [1] came out at 18 nM.

`CN(C)C/C=C/C(=O)N1CC2CC(n3nc(-c4ccc(-c5nnc(-c6cnccn6)s5)cc4)c4c(N)ncnc43)CC2C1` (stereo not drawn) [Compound 56, (E)-1-(5-(4-amino-3-(4-(5-(pyrazin-2-yl)-1,3,4-thiadiazol-2-yl)phenyl)-1H-pyrazolo[3,4-d]pyrimidin-1-yl)hexahydrocyclopenta[c]pyrrol-2(1H)-yl)-4-(dimethylamino)but-2-en-1-one]: the inhibition at 10 μM was greater than 50% against CYP 2C8; greater than 50% at CYP 3A4; less than 50% against CYP 2D6; less than 50% against CYP 2C19; greater than 50% against CYP 1A2; greater than 50% against CYP 2C9. Besides, the IC50 in data set [1] is 50 nM.

In the case of `CN(C)C/C=C/C(=O)N1CC2CC(n3nc(-c4ccc(Oc5cccnc5)cc4)c4c(N)ncnc43)CC2C1` (stereo not drawn) [Compound 53, (E)-1-(5-(4-amino-3-(4-(pyridin-3-yloxy)phenyl)-1H-pyrazolo[3,4-d]pyrimidin-1-yl)hexahydrocyclopenta[c]pyrrol-2(1H)-yl)-4-(dimethylamino)but-2-en-1-one], the inhibition at 10 μM on CYP 2C8 is less than 50%; against CYP 3A4 it was greater than 50%; on CYP 2D6 it was less than 50%; at CYP 2C19 it was less than 50%; at CYP 1A2 it was less than 50%; at CYP 2C9, less than 50%. Besides, in data set [1], the IC50 worked out at 10 nM.

For the molecule `C=CC(=O)N1CC2CC(n3nc(-c4ccc5nc(-c6ccccc6)sc5c4)c4c(N)ncnc43)CC2C1` (stereo not drawn) [Compound 14, 1-(5-(4-amino-3-(2-phenylbenzo[d]thiazol-6-yl)-1H-pyrazolo[3,4-d]pyrimidin-1-yl)hexahydrocyclopenta[c]pyrrol-2(1H)-yl)prop-2-en-1-one], the inhibition at 10 μM against CYP 2C8, against CYP 3A4, against CYP 2D6, against CYP 2C19, on CYP 1A2 and against CYP 2C9 was less than 50% each time. Moreover, the 50% inhibitory concentration (IC50) in data set [1] is 1.4 nM.

For the molecule `C=CC(=O)N1CC2CN(c3ccc(Cn4nc(-c5ccc(Oc6ccccc6)cc5)c5c(N)ncnc54)cn3)CC2C1` (stereo not drawn) [Compound 3, 1-(5-(5-((4-amino-3-(4-phenoxyphenyl)-1H-pyrazolo[3,4-d]pyrimidin-1-yl)methyl)pyridin-2-yl)hexahydropyrrolo[3,4-c]pyrrol-2(1H)-yl)prop-2-en-1-one], the inhibition at 10 μM is less than 50% on CYP 2C8; less than 50% on CYP 3A4; less than 50% against CYP 2D6; less than 50% against CYP 2C19; less than 50% against CYP 1A2; greater than 50% on CYP 2C9. The IC50 in data set [1] came out at 8 nM.

`C=CC(=O)N1CC2CN(CCn3nc(-c4ccc(Oc5ccccc5)cc4)c4c(N)ncnc43)CC2C1` (stereo not drawn) [Compound 4, 1-(5-(2-(4-amino-3-(4-phenoxyphenyl)-1H-pyrazolo[3,4-d]pyrimidin-1-yl)ethyl)hexahydropyrrolo[3,4-c]pyrrol-2(1H)-yl)prop-2-en-1-one]: the inhibition at 10 μM against CYP 2C8, on CYP 3A4, on CYP 2D6, on CYP 2C19, against CYP 1A2 and against CYP 2C9 was less than 50% in each case. Further, the half-maximal inhibitory concentration (IC50) in data set [1] was 2 nM.

With `CN(C)C/C=C/C(=O)N1CC2CC(n3nc(-c4ccc(-c5nnc(-c6ccccn6)o5)cc4)c4c(N)ncnc43)CC2C1` (stereo not drawn) [Compound 57, (E)-1-(5-(4-amino-3-(4-(5-(pyridin-2-yl)-1,3,4-oxadiazol-2-yl)phenyl)-1H-pyrazolo[3,4-d]pyrimidin-1-yl)hexahydrocyclopenta[c]pyrrol-2(1H)-yl)-4-(dimethylamino)but-2-en-1-one], the inhibition at 10 μM is greater than 50% on CYP 2C8; greater than 50% against CYP 3A4; less than 50% on CYP 2D6; less than 50% against CYP 2C19; less than 50% against CYP 1A2; greater than 50% at CYP 2C9. In addition, the IC50 in data set [1] came out at 100 nM.

Turning to `C=CC(=O)N1CC2CC(n3nc(-c4ccc(-c5nnc(-c6ccccn6)s5)cc4)c4c(N)ncnc43)CC2C1` (stereo not drawn) [Compound 39, 1-(5-(4-amino-3-(4-(5-(pyridin-2-yl)-1,3,4-thiadiazol-2-yl)phenyl)-1H-pyrazolo [3,4-d]pyrimidin-1-yl)hexahydrocyclopenta[c]pyrrol-2(1H)-yl)prop-2-en-1-one], the inhibition at 10 μM against CYP 2C8, on CYP 3A4, against CYP 2D6, on CYP 2C19, against CYP 1A2 and against CYP 2C9 was less than 50% throughout. Also, the IC50 in data set [1] came to 1.4 nM.
